Among the data in ChEMBL document CHEMBL1158337, “Synthesis and bioassay of a new class of heterocycles pyrrolyl oxadiazoles/thiadiazoles/triazoles” (Eur J Med Chem, 2009) are zone of inhibition, MIC and Activity values, retold here.

One may read the MIC as the least concentration at which growth counts as inhibited. High values mean a less susceptible organism, low ones a more susceptible organism.

Series [1] deals with Curvularia lunata. Put plainly: Antifungal activity against Curvularia lunata at 200 ug/disk after 48 hrs by agar disc-diffusion method. It is filed as functional. As to conditions: read-out: IZ. On the technique in general: In agar diffusion tests the substance spreads into inoculated agar from a disc or well.
The test system of series [2] is Fusarium solani. Put plainly: Antifungal activity against Fusarium solani at 200 ug/disk after 48 hrs by agar disc-diffusion method. It is filed as functional. As to conditions: read-out: IZ.
For series [3], the system named is Klebsiella pneumoniae. Put plainly: Antibacterial activity against Klebsiella pneumoniae at 200 ug/disk after 24 hrs by agar disc-diffusion method. It is filed as functional. As to conditions: read-out: IZ.
The test system of series [4] is Fusarium solani. Put plainly: Antifungal activity against Fusarium solani after 48 hrs by microdilution susceptibility method. In kind it is functional.
Series [5] has as its system Escherichia coli. The series is described as follows: Antibacterial activity against Escherichia coli at 100 ug/disk after 24 hrs by agar disc-diffusion method. It is filed as functional. As to conditions: read-out: IZ.
For series [6], the system named is Klebsiella pneumoniae. The series is described as follows: Antibacterial activity against Klebsiella pneumoniae at 100 ug/disk after 24 hrs by agar disc-diffusion method. It is filed as functional. As to conditions: read-out: IZ.
The subject of series [7] is Bacillus subtilis. The series is described as follows: Antibacterial activity against Bacillus subtilis at 200 ug/disk after 24 hrs by agar disc-diffusion method. In kind it is functional. As to conditions: read-out: IZ.
The test system of series [8] is Curvularia lunata. Put plainly: Antifungal activity against Curvularia lunata after 48 hrs by microdilution susceptibility method. In kind it is functional.
For series [9], the system named is Escherichia coli. Put plainly: Antibacterial activity against Escherichia coli after 24 hrs by microdilution susceptibility method. In kind it is functional. In general terms: In broth dilution the organism is exposed to a series of concentrations in liquid medium.
Series [10] concerns Fusarium solani. Put plainly: Antifungal activity against Fusarium solani at 100 ug/disk after 48 hrs by agar disc-diffusion method. In kind it is functional. As to conditions: read-out: IZ.
Series [11] deals with Bacillus subtilis. Put plainly: Antibacterial activity against Bacillus subtilis at 100 ug/disk after 24 hrs by agar disc-diffusion method. It is filed as functional. As to conditions: read-out: IZ.
Series [12] deals with Staphylococcus aureus. The series is described as follows: Antibacterial activity against Staphylococcus aureus at 100 ug/disk after 24 hrs by agar disc-diffusion method. It is filed as functional. As to conditions: read-out: IZ.
Series [13] concerns Klebsiella pneumoniae. The series is described as follows: Antibacterial activity against Klebsiella pneumoniae after […] by microdilution susceptibility method. In kind it is functional.
Series [14] relates to Bacillus subtilis. Put plainly: Antibacterial activity against Bacillus subtilis after 24 hrs by microdilution susceptibility method. In kind it is functional.
The subject of series [15] is Curvularia lunata. The series is described as follows: Antifungal activity against Curvularia lunata at 100 ug/disk after 48 hrs by agar disc-diffusion method. In kind it is functional. As to conditions: read-out: IZ.
The test system of series [16] is Aspergillus niger. Put plainly: Antifungal activity against Aspergillus niger after 48 hrs by microdilution susceptibility method. In kind it is functional.
Series [17] concerns Aspergillus niger. The series is described as follows: Antifungal activity against Aspergillus niger at 100 ug/disk after 48 hrs by agar disc-diffusion method. It is filed as functional. As to conditions: read-out: IZ.
For series [18], the system named is Staphylococcus aureus. Put plainly: Antibacterial activity against Staphylococcus aureus at 200 ug/disk after 24 hrs by agar disc-diffusion method. In kind it is functional. As to conditions: read-out: IZ.
For series [19], the system named is Staphylococcus aureus. The series is described as follows: Antibacterial activity against Staphylococcus aureus after 24 hrs by microdilution susceptibility method. In kind it is functional.
Series [20] relates to Escherichia coli. The series is described as follows: Antibacterial activity against Escherichia coli at 200 ug/disk after 24 hrs by agar disc-diffusion method. It is filed as functional. As to conditions: read-out: IZ.
Series [21] deals with Aspergillus niger. Put plainly: Antifungal activity against Aspergillus niger at 200 ug/disk after 48 hrs by agar disc-diffusion method. It is filed as functional. As to conditions: read-out: IZ.
The nature of series [22]: Cytotoxicity against mink CCL64 cells upto 100 uM after 72 hrs by MTT assay in presence of 0.2% fetal bovine serum. As to conditions: neovison vison, ccl64, 72 h. It is filed as cell-based.
In series [23] the test system is A549. Put plainly: Cytotoxicity against human A549 cells upto 100 uM after 72 hrs by MTT assay in presence of 10% fetal bovine serum. It is filed as functional, cell-based. In general terms: Tetrazolium assays rely on reduction of a dye to a coloured formazan, in cell work by metabolically active cells.

Molecules are shown by their SMILES. Converted amounts (≈) assume the structure as drawn.

For the compound `Nn1c(S)nnc1CS(=O)(=O)c1c[nH]cc1S(=O)(=O)c1ccc(Cl)cc1`, the zone of inhibition at 200 µg/disc was 41 mm in [1]; 40 mm in series [2]; 28 mm in series [3]; 38 mm in [7]; 35 mm in series [18]; 25 mm in series [20]. For the same compound, the zone of inhibition at 200 µg/disc in [21] is 37 mm. The MIC in series [4] worked out at 50 µg/mL (≈ 115 µM); in [8], 12.5 µg/mL (≈ 28.8 µM); in [9], 50 µg/mL (≈ 115 µM); in [13] it was 50 µg/mL (≈ 115 µM); in [14] it was 50 µg/mL (≈ 115 µM); in series [16], 25 µg/mL (≈ 57.6 µM). For the same compound, the minimum inhibitory concentration (MIC) in series [19] is 12.5 µg/mL (≈ 28.8 µM). Also, the zone of inhibition at 100 µg/disc in series [5] amounted to 23 mm; in [6], 26 mm; in [10] it was 35 mm; in series [11], 34 mm; in [12], 32 mm; in series [15] it was 38 mm. Besides, in [17], the zone of inhibition at 100 µg/disc stood at 34 mm.

As for `CC(=O)N1CCN(c2ccc(OCC3COC(Cn4ccnc4)(c4ccc(Cl)cc4Cl)O3)cc2)CC1` (centres undefined) [KETOCONAZOLE], the zone of inhibition at 200 µg/disc in series [1] amounted to 44 mm; in series [2], 42 mm; in series [21], 39 mm. The figures for the minimal inhibitory concentration (MIC) in series [4], in [8] and in series [16] were 12.5 µg/mL (≈ 23.5 µM), 6.25 µg/mL (≈ 11.8 µM) and 6.25 µg/mL (≈ 11.8 µM), respectively. Moreover, the figures for the zone of inhibition at 100 µg/disc in [10], in series [15] and in series [17] were 38 mm, 41 mm and 36 mm, respectively.

In the case of `O=S(=O)(Cc1nnc(S)o1)c1c[nH]cc1S(=O)(=O)c1ccc(Cl)cc1`, the zone of inhibition at 200 µg/disc in [1] was found to be 20 mm; in series [2], 21 mm; in [3], 13 mm; in series [7], 18 mm; in [18], 17 mm; in series [20], 12 mm. Further, the zone of inhibition at 200 µg/disc in series [21] worked out at 18 mm. In addition, the zone of inhibition at 100 µg/disc in series [5] came to 10 mm; in series [6], 11 mm; in series [10], 18 mm; in [11], 14 mm; in series [12], 14 mm; in series [15], 17 mm. The zone of inhibition at 100 µg/disc in series [17] is 15 mm.

On to `Cc1ccc(S(=O)(=O)c2c[nH]cc2S(=O)(=O)Cc2nnc(S)o2)cc1`, for which the zone of inhibition at 200 µg/disc was determined as 18 mm in series [1]; 19 mm in series [2]; 13 mm in series [3]; 16 mm in series [7]; 14 mm in series [18]; 14 mm in series [20]. Moreover, in series [21], the zone of inhibition at 200 µg/disc was 21 mm. Also, the zone of inhibition at 100 µg/disc in [5] is 11 mm; in [6], 11 mm; in series [10] it was 16 mm; in [11] it was 12 mm; in [12], 11 mm; in series [15], 15 mm. In series [17], the zone of inhibition at 100 µg/disc is 17 mm.

`O=C(O)c1cn(C2CC2)c2cc(N3CCNCC3)c(F)cc2c1=O` [CIPROFLOXACIN]: the zone of inhibition at 200 µg/disc was found to be 42 mm in series [3], 42 mm in series [7], 38 mm in series [18] and 45 mm in series [20]. For the same compound, the zone of inhibition at 100 µg/disc in series [5] was 40 mm; in [6], 37 mm; in series [11], 36 mm; in series [12] it was 34 mm. The MIC in [13] and in series [14] was 6.25 µg/mL (≈ 18.9 µM) each time.

For `O=S(=O)(Cc1nnc(S)s1)c1c[nH]cc1S(=O)(=O)c1ccc(Cl)cc1`, the zone of inhibition at 200 µg/disc is 25 mm in [1]; 31 mm in series [2]; 28 mm in [3]; 32 mm in [7]; 30 mm in series [18]; 27 mm in series [20]. Further, the zone of inhibition at 200 µg/disc in series [21] was 28 mm. Also, the minimal inhibitory concentration (MIC) in series [4] worked out at 100 µg/mL (≈ 229 µM); in series [8] it was 100 µg/mL (≈ 229 µM); in [9], 200 µg/mL (≈ 459 µM); in [13] it was 200 µg/mL (≈ 459 µM); in series [14] it was 200 µg/mL (≈ 459 µM); in [16], 200 µg/mL (≈ 459 µM). Besides, the minimum inhibitory concentration (MIC) in series [19] worked out at 100 µg/mL (≈ 229 µM). Further, the zone of inhibition at 100 µg/disc in [5] was 22 mm; in series [6], 23 mm; in series [10] it was 26 mm; in series [11], 28 mm; in series [12], 25 mm; in series [15], 23 mm. The zone of inhibition at 100 µg/disc in series [17] was 26 mm.

Consider `Cc1ccc(S(=O)(=O)c2c[nH]cc2S(=O)(=O)Cc2nnc(S)n2N)cc1`, for which the zone of inhibition at 200 µg/disc turned out to be 35 mm in series [1]; 33 mm in series [2]; 23 mm in series [3]; 27 mm in series [7]; 28 mm in [18]; 24 mm in [20]. The zone of inhibition at 200 µg/disc in series [21] was determined as 36 mm. Also, the zone of inhibition at 100 µg/disc in [5] turned out to be 20 mm; in series [6] it was 21 mm; in [10], 29 mm; in series [11] it was 25 mm; in series [12], 24 mm; in series [15] it was 28 mm. In series [17], the zone of inhibition at 100 µg/disc was 34 mm.

Take `Cc1ccc(S(=O)(=O)c2c[nH]cc2S(=O)(=O)Cc2nnc(S)s2)cc1`: the zone of inhibition at 200 µg/disc in series [1] turned out to be 24 mm; in [2], 27 mm; in series [3], 19 mm; in [7], 19 mm; in series [18], 17 mm; in [20], 20 mm. Also, the zone of inhibition at 200 µg/disc in [21] was 24 mm. Also, the zone of inhibition at 100 µg/disc in [5] is 18 mm; in series [6], 16 mm; in [10] it was 25 mm; in series [11], 17 mm; in series [12], 16 mm; in [15], 22 mm. The zone of inhibition at 100 µg/disc in series [17] is 21 mm.

As for `O=S(=O)(Cc1nnc(S)s1)c1c[nH]cc1S(=O)(=O)c1ccccc1`, the zone of inhibition at 200 µg/disc in series [1] stood at 29 mm; in series [2], 27 mm; in [3], 21 mm; in series [7], 23 mm; in [18], 20 mm; in series [20], 20 mm. Further, the zone of inhibition at 200 µg/disc in series [21] is 29 mm. For the same compound, the zone of inhibition at 100 µg/disc stood at 16 mm in series [5]; 17 mm in series [6]; 25 mm in series [10]; 21 mm in series [11]; 18 mm in [12]; 28 mm in [15]. Besides, the zone of inhibition at 100 µg/disc in series [17] came out at 24 mm. Further, the Activity entry in [22] was “Non-toxic”; in series [23], “Not toxic”.

As for `O=S(=O)(Cc1nnc(S)o1)c1c[nH]cc1S(=O)(=O)c1ccccc1`, the zone of inhibition at 200 µg/disc was found to be 21 mm in series [1]; 20 mm in series [2]; 16 mm in [3]; 13 mm in [7]; 15 mm in series [18]; 17 mm in series [20]. The zone of inhibition at 200 µg/disc in series [21] was 20 mm. Besides, the zone of inhibition at 100 µg/disc in series [5] was found to be 14 mm; in series [6] it was 13 mm; in series [10], 18 mm; in series [11] it was 11 mm; in series [12] it was 12 mm; in [15] it was 17 mm. The zone of inhibition at 100 µg/disc in [17] was 15 mm. The Activity result is “Non-toxic” in series [22] and “Not toxic” in series [23].
